In patent US20190151266A1, “PHARMACEUTICAL COMPOSITION FOR TREATING OR PREVENTING BURN INJURIES” (priority 2016, published 2019):

Key:
TRPV ion channels = experiment: TRPV ion channel activity: 2-APB-induced intracellular calcium change in nociceptive sensory cells (Fluo-4-AM); assay type: cell-based, white rats
Method: After fl 1 nociceptive sensory cell lines in white rats incubated with the compound of Formula 1 for 24 hours were pretreated, TRPV ion channel activities were measured. The fl 1 cell lines were treated with 2-APB (2-aminoethoxydiphenyl borate) as a pre-activator for TRPV ion channels, and intracellular calcium changes, which are triggered in response to the 2-APB treatment, were evaluated using a Fluo-4-AM fluorescent dye on a real time basis.

f11 neuron cell lines = experiment: Inhibitory efficacy of fibroblast cell proliferation; assay type: cell-based; conditions: f11 neuron cell lines treated for 72 hours; compared to control groups; FIG. 10
Method: After f11 neuron cell lines were treated with the compound of Formula 1 for 72 hours, the extents of cell differentiation were first compared/evaluated (see FIG. 10). […] Since fibroblast cell proliferation accompanies excessive collagen synthesis to make up for the dermis damaged by skin injury, scars can be left even after the damage recovery. Therefore, scar prevent or treating efficacy can be exerted by inhibiting the fibroblast proliferation.

NCCOB(c1ccccc1)c1ccccc1 [Formula 2-APB, 2-aminoethoxydiphenyl borate, reference compound]
intracellular calcium level after treatment with TRPV pre-activator (TRPV ion channels; fl 1 cell lines, transient within 20 seconds, reverted to base level in about 5 minutes): sharp increase in the intracellular calcium level

CC(C)c1ccc2c(c1)C=C[C@H]1[C@](C)(C(=O)O)CCC[C@]21C [Formula 1, abieta-6,8,11,13-tetraaen-18-oic acid]
fibroblast cell proliferation and differentiation inhibitory efficacy (f11 neuron cell lines): improved fibroblast cell proliferation and differentiation inhibitory efficacy
increase in the intracellular calcium level induced by 2-APB (TRPV ion channels; fl 1 cell lines pre-treated with the compound for 24 hours, FIG. 9): strongly inhibited
